Reference: PubChem BioAssay (NCI)
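Cells were grown in 96-well plates and exposed to each compound for 48 hours at five concentrations; endpoints were interpolated linearly between bracketing concentrations, or set to the highest concentration if not reached. Here, GI50 denotes the concentration required for 50% inhibition of growth. TGI: total growth inhibition.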

Legend:
Experiment in all cases: NCI tumour cell line growth inhibition, 48 h
SN12C renal = tested on: SN12C renal
SW-620 colon = tested on: SW-620 colon
A549 NSCLC = tested on: A549 NSCLC
U251 CNS = tested on: U251 CNS
HL-60(TB) leukemia = tested on: HL-60(TB) leukemia
RPMI-8226 leukemia = tested on: RPMI-8226 leukemia
CCRF-CEM leukemia = tested on: CCRF-CEM leukemia
OVCAR-4 ovarian = tested on: OVCAR-4 ovarian
NCI-H23 lung = tested on: NCI-H23 lung
NCI-H522 lung = tested on: NCI-H522 lung

SMILES | GI50 (SN12C renal) [µM] | TGI (SN12C renal) [µM] | GI50 (SW-620 colon) [µM] | TGI (SW-620 colon) [µM] | GI50 (A549 NSCLC) [µM] | TGI (A549 NSCLC) [µM] | GI50 (U251 CNS) [µM] | TGI (U251 CNS) [µM] | GI50 (HL-60(TB) leukemia) [µM] | TGI (HL-60(TB) leukemia) [µM] | GI50 (RPMI-8226 leukemia) [µM] | TGI (RPMI-8226 leukemia) [µM] | GI50 (CCRF-CEM leukemia) [µM] | TGI (CCRF-CEM leukemia) [µM] | TGI (OVCAR-4 ovarian) [µM] | TGI (NCI-H23 lung) [µM] | TGI (NCI-H522 lung) [µM] | GI50 (OVCAR-4 ovarian) [µM] | GI50 (NCI-H23 lung) [µM] | GI50 (NCI-H522 lung) [µM]
O=C1c2nsnc2C(=O)c2c(F)c(F)c(F)c(F)c21 | 0.998 | 2.28 | 0.172 | 0.348 | 2.15 | 4.85 | 1.38 | 2.94 | 0.591 | 2.73 | 0.374 | 1.63 | 0.117 | 0.542 | – | – | – | – | – | –
CNC(=O)OCc1c2ccncc2c(C)c2c1[nH]c1ccccc12 | – | 1.94 | – | 2.38 | – | 2.58 | – | 1.8 | – | 0.92 | – | – | – | – | 1.38 | 0.822 | 0.272 | – | – | –
O=C1c2ccccc2C(=O)N1CCN(CCN1C(=O)c2ccccc2C1=O)Cn1cccn1 | – | > 100 | – | > 100 | – | > 100 | – | > 100 | – | 74.5 | – | 83.4 | – | > 100 | > 100 | – | > 100 | – | – | –
COC1CCN(C(=O)c2cc(Cc3n[nH]c(=O)c4ccccc34)ccc2F)CC1 | 67.5 | > 100 | > 100 | > 100 | 58.9 | > 100 | > 55.3 | > 100 | > 85.3 | > 100 | 60.9 | > 100 | 43.9 | > 100 | > 100 | > 100 | > 100 | 36.7 | 51.7 | 33.5
O=C1CCC2CC(C(=O)c3ccccc3)CCC2CN1 (stereo unspecified) (tested in a mixture with another compound) | – | > 100 | – | > 100 | – | > 100 | – | > 100 | – | > 100 | – | > 100 | – | > 100 | > 100 | > 100 | > 100 | – | – | –
COC(=O)[C@]12CC[C@@H](C)[C@H](C)[C@@H]1C1=CC[C@@H]3[C@@]4(C)C(C=O)=C[C@@](C)(COC(C)=O)C4=CC[C@@]3(C)[C@]1(C)CC2 | 6.12 | 28.1 | 4.15 | 16.2 | 3.82 | 16.2 | 3.37 | 13.9 | 2.68 | 6.49 | 2 | 5.7 | 1.95 | 7.82 | 18.3 | 19.3 | 20.5 | 4.06 | 4.53 | 7.97
N#Cc1ccccc1NC(=O)C(=O)c1c(O)c2ccccc2oc1=O | – | > 100 | – | > 100 | – | > 100 | – | > 100 | – | > 100 | – | > 100 | – | > 100 | > 100 | > 100 | > 100 | – | – | –
COC(=O)C(CC(C)C)NC(=O)NC12CC3CC(CC(F)(C3)C1)C2 (stereo unspecified) | – | – | – | > 100 | – | > 100 | – | > 100 | – | > 100 | – | > 100 | – | > 100 | – | > 100 | > 100 | – | – | –
COC(=O)C(C(=O)C(=O)Nc1nc(=S)[nH][nH]1)c1csc(-n2nc(-c3ccccc3)cc2-c2ccccc2)n1 (stereo unspecified) | – | > 100 | – | > 100 | – | > 100 | – | > 100 | – | > 100 | – | > 100 | – | > 100 | > 100 | > 100 | > 100 | – | – | –
CN(C)CCNC(=O)C(C)(C)Oc1ccc(C(=O)c2ccc(Cl)cc2)cc1Cl | 3.59 | 26.7 | – | 18.3 | 12.2 | 24.6 | – | 20 | 2.82 | > 29.1 | 3.32 | > 48.7 | 5.31 | > 77.3 | 28 | 21.9 | 28.2 | – | 4.77 | –
O=C(O)C[C@H]1CCCCC12CCOC2=O (stereo partly specified) | – | > 100 | – | > 100 | – | > 100 | – | > 100 | – | > 100 | – | > 100 | – | > 100 | > 100 | > 100 | > 100 | – | – | –
COC(=O)/C=C(\C(=O)OC)c1c2c3c(cc(OC)c(OC)c3c3ccccc13)CCN2C | – | > 100 | – | > 100 | – | > 100 | – | > 100 | – | 56.3 | – | > 100 | – | 85.4 | – | > 100 | 74 | – | – | –
Oc1ccc(O)c(-c2cn3ccsc3n2)c1 | 12.2 | 26.9 | 7.1 | 19.1 | 22.9 | 48.9 | 15.8 | 33.7 | – | – | 1.73 | 7.82 | 1.59 | 4.23 | – | 64.3 | > 100 | – | 16.9 | 4.29
Cc1ccc(NC(=O)C(=O)C(C#N)c2nc(-c3ccc(-c4ccccc4)cc3)cs2)c(C)c1 (stereo unspecified) | – | > 100 | – | > 100 | – | > 100 | – | > 100 | – | – | – | > 100 | – | – | > 100 | > 1 | – | – | – | –
O=C(c1ccccc1)[C@H]1Nc2ccc(Cl)cc2C2c3ccccc3CC21 (stereo partly specified) | – | > 100 | – | > 100 | – | > 100 | – | > 100 | – | – | – | > 100 | – | – | 50.9 | > 100 | > 100 | – | – | –
Cl.Fc1c[c-]c(-c2ccccn2)c(F)c1.[Pt].c1ccc(P(c2ccccc2)C([PH+](c2ccccc2)c2ccccc2)[PH+](c2ccccc2)c2ccccc2)cc1 | 2.91 | 15.4 | 3.19 | 14.6 | 2.84 | 20.7 | 3.23 | 13.6 | 1.95 | 6.07 | 1.68 | 5.51 | 3.26 | > 100 | – | 61.1 | 9.86 | – | 3.06 | 2.62
Cc1cc2c(cc1C)[n+](=O)c(C(=O)C/C(=N/OCCCc1ccccc1)C(=O)Nc1cc(Cl)ccc1Cl)c(C)n2[O-] | – | > 100 | – | > 100 | – | > 100 | – | > 100 | – | > 100 | – | – | – | > 100 | > 100 | > 100 | > 100 | – | – | –
CC(=O)Nc1cc(N(CCOS(C)(=O)=O)CCOS(C)(=O)=O)ccc1N=O | – | – | – | > 100 | – | > 100 | – | > 100 | – | > 100 | – | > 100 | – | > 100 | > 100 | > 100 | > 100 | – | – | –
